Experimental data from ChEMBL document CHEMBL3044763, “Inhibitory Activities of Rhodanine Derivatives on Plant Growth” (Biosci Biotechnol Biochem, 1996).

What was measured:
[1] = test system: Brassica rapa subsp. oleifera; assay: Growth inhibition of Brassica rapa subsp. oleifera assessed as chlorophyll b level at 3 x 10^-4 M after 7 days; assay type: functional; parameters: scale not given: the % may be the effect or the level left
[2] = test system: Brassica rapa subsp. oleifera; assay: Growth inhibition of Brassica rapa subsp. oleifera assessed as chlorophyll b level at 1 x 10^-4 M after 7 days; assay type: functional; parameters: scale not given: the % may be the effect or the level left
[3] = test system: Brassica rapa subsp. oleifera; assay: Growth inhibition of Brassica rapa subsp. oleifera assessed as chlorophyll a level at 3 x 10^-5 M after 7 days; assay type: functional; parameters: scale not given: the % may be the effect or the level left
[4] = test system: Brassica rapa subsp. oleifera; assay: Growth inhibition of Brassica rapa subsp. oleifera assessed as chlorophyll a level at 5 x 10^-5 M after 7 days; assay type: functional; parameters: scale not given: the % may be the effect or the level left
[5] = Toxicity in Mus musculus ddY (mouse) assessed as mortality at 500 mg/kg, ip after 4 days; assay type: organism-based; parameters: dose 500 mg/kg, route intraperitoneal; conditions: in vivo
[6] = Toxicity in Mus musculus ddY (mouse) assessed as mortality at 650 mg/kg, ip after 4 days; assay type: organism-based; parameters: dose 650 mg/kg, route intraperitoneal; conditions: in vivo
[7] = Toxicity in Mus musculus ddY (mouse) assessed as mortality at 600 mg/kg, ip after 4 days; assay type: organism-based; parameters: dose 600 mg/kg, route intraperitoneal; conditions: in vivo
[8] = Toxicity in ip dosed Mus musculus ddY (mouse) assessed as mortality after 1 to 7 days; assay type: organism-based; conditions: in vivo
[9] = test system: Brassica rapa subsp. oleifera; assay: Growth inhibition of Brassica rapa subsp. oleifera assessed as total chlorophyll level at 5 x 10^-5 M after 7 days; assay type: functional; parameters: scale not given: the % may be the effect or the level left
[10] = test system: Brassica rapa subsp. oleifera; assay: Growth inhibition of Brassica rapa subsp. oleifera assessed as total chlorophyll level at 3 x 10^-5 M after 7 days; assay type: functional; parameters: scale not given: the % may be the effect or the level left
[11] = test system: Brassica rapa subsp. oleifera; assay: Growth inhibition of Brassica rapa subsp. oleifera assessed as total chlorophyll level at 1 x 10^-4 M after 7 days; assay type: functional; parameters: scale not given: the % may be the effect or the level left
[12] = test system: Brassica rapa subsp. oleifera; assay: Growth inhibition of Brassica rapa subsp. oleifera assessed as total chlorophyll level at 3 x 10^-4 M after 7 days; assay type: functional; parameters: scale not given: the % may be the effect or the level left
[13] = test system: Brassica rapa subsp. oleifera; assay: Growth inhibition of Brassica rapa subsp. oleifera assessed as root growth at 3 x 10^-5 M after 7 days; assay type: functional
[14] = test system: Brassica rapa subsp. oleifera; assay: Growth inhibition of Brassica rapa subsp. oleifera assessed as root growth at 5 x 10^-5 M after 7 days; assay type: functional
[15] = test system: Brassica rapa subsp. oleifera; assay: Growth inhibition of Brassica rapa subsp. oleifera assessed as root growth at 1 x 10^-4 M after 7 days; assay type: functional
[16] = test system: Brassica rapa subsp. oleifera; assay: Growth inhibition of Brassica rapa subsp. oleifera assessed as root growth at 3 x 10^-4 M after 7 days; assay type: functional
[17] = Toxicity in Mus musculus ddY (mouse) assessed as mortality at 400 mg/kg, ip after 4 days; assay type: organism-based; parameters: dose 400 mg/kg, route intraperitoneal; conditions: in vivo
[18] = Toxicity in Mus musculus ddY (mouse) assessed as mortality at 450 mg/kg, ip after 3 days; assay type: organism-based; parameters: dose 450 mg/kg, route intraperitoneal; conditions: in vivo
[19] = Toxicity in Mus musculus ddY (mouse) assessed as mortality at 400 mg/kg, ip after 3 days; assay type: organism-based; parameters: dose 400 mg/kg, route intraperitoneal; conditions: in vivo
[20] = Toxicity in Mus musculus ddY (mouse) assessed as mortality at 550 mg/kg, ip after 3 days; assay type: organism-based; parameters: dose 550 mg/kg, route intraperitoneal; conditions: in vivo
[21] = Toxicity in Mus musculus ddY (mouse) assessed as mortality at 500 mg/kg, ip after 3 days; assay type: organism-based; parameters: dose 500 mg/kg, route intraperitoneal; conditions: in vivo
[22] = Toxicity in Mus musculus ddY (mouse) assessed as mortality at 650 mg/kg, ip after 3 days; assay type: organism-based; parameters: dose 650 mg/kg, route intraperitoneal; conditions: in vivo
[23] = Toxicity in Mus musculus ddY (mouse) assessed as mortality at 600 mg/kg, ip after 3 days; assay type: organism-based; parameters: dose 600 mg/kg, route intraperitoneal; conditions: in vivo
[24] = Toxicity in Mus musculus ddY (mouse) assessed as mortality at 450 mg/kg, ip after 2 days; assay type: organism-based; parameters: dose 450 mg/kg, route intraperitoneal; conditions: in vivo
[25] = Toxicity in Mus musculus ddY (mouse) assessed as mortality at 550 mg/kg, ip after 2 days; assay type: organism-based; parameters: dose 550 mg/kg, route intraperitoneal; conditions: in vivo
[26] = Toxicity in Mus musculus ddY (mouse) assessed as mortality at 500 mg/kg, ip after 2 days; assay type: organism-based; parameters: dose 500 mg/kg, route intraperitoneal; conditions: in vivo
[27] = Toxicity in Mus musculus ddY (mouse) assessed as mortality at 650 mg/kg, ip after 2 days; assay type: organism-based; parameters: dose 650 mg/kg, route intraperitoneal; conditions: in vivo
[28] = Toxicity in Mus musculus ddY (mouse) assessed as mortality at 600 mg/kg, ip after 2 days; assay type: organism-based; parameters: dose 600 mg/kg, route intraperitoneal; conditions: in vivo
[29] = Toxicity in Mus musculus ddY (mouse) assessed as mortality at 400 mg/kg, ip after 2 days; assay type: organism-based; parameters: dose 400 mg/kg, route intraperitoneal; conditions: in vivo
[30] = Toxicity in Mus musculus ddY (mouse) assessed as mortality at 450 mg/kg, ip after 1 day; assay type: organism-based; parameters: dose 450 mg/kg, route intraperitoneal; conditions: in vivo
[31] = Toxicity in Mus musculus ddY (mouse) assessed as mortality at 550 mg/kg, ip after 1 day; assay type: organism-based; parameters: dose 550 mg/kg, route intraperitoneal; conditions: in vivo
[32] = Toxicity in Mus musculus ddY (mouse) assessed as mortality at 500 mg/kg, ip after 1 day; assay type: organism-based; parameters: dose 500 mg/kg, route intraperitoneal; conditions: in vivo
[33] = Toxicity in Mus musculus ddY (mouse) assessed as mortality at 650 mg/kg, ip after 1 day; assay type: organism-based; parameters: dose 650 mg/kg, route intraperitoneal; conditions: in vivo
[34] = Toxicity in Mus musculus ddY (mouse) assessed as mortality at 600 mg/kg, ip after 1 day; assay type: organism-based; parameters: dose 600 mg/kg, route intraperitoneal; conditions: in vivo
[35] = test system: Brassica rapa subsp. oleifera; assay: Growth inhibition of Brassica rapa subsp. oleifera assessed as chlorophyll b level at 3 x 10^-5 M after 7 days; assay type: functional; parameters: scale not given: the % may be the effect or the level left
[36] = Toxicity in Mus musculus ddY (mouse) assessed as mortality at 400 mg/kg, ip after 1 day; assay type: organism-based; parameters: dose 400 mg/kg, route intraperitoneal; conditions: in vivo
[37] = test system: Brassica rapa subsp. oleifera; assay: Growth inhibition of Brassica rapa subsp. oleifera assessed as chlorophyll b level at 5 x 10^-5 M after 7 days; assay type: functional; parameters: scale not given: the % may be the effect or the level left
[38] = test system: Brassica rapa subsp. oleifera; assay: Growth inhibition of Brassica rapa subsp. oleifera assessed as chlorophyll a level at 1 x 10^-4 M after 7 days; assay type: functional; parameters: scale not given: the % may be the effect or the level left
[39] = test system: Brassica rapa subsp. oleifera; assay: Growth inhibition of Brassica rapa subsp. oleifera assessed as chlorophyll a level at 3 x 10^-4 M after 7 days; assay type: functional; parameters: scale not given: the % may be the effect or the level left
[40] = Toxicity in Mus musculus ddY (mouse) assessed as mortality at 450 mg/kg, ip after 5 days; assay type: organism-based; parameters: dose 450 mg/kg, route intraperitoneal; conditions: in vivo
[41] = Toxicity in Mus musculus ddY (mouse) assessed as mortality at 550 mg/kg, ip after 5 days; assay type: organism-based; parameters: dose 550 mg/kg, route intraperitoneal; conditions: in vivo
[42] = Toxicity in Mus musculus ddY (mouse) assessed as mortality at 500 mg/kg, ip after 5 days; assay type: organism-based; parameters: dose 500 mg/kg, route intraperitoneal; conditions: in vivo
[43] = Toxicity in Mus musculus ddY (mouse) assessed as mortality at 600 mg/kg, ip after 5 days; assay type: organism-based; parameters: dose 600 mg/kg, route intraperitoneal; conditions: in vivo
[44] = Toxicity in Mus musculus ddY (mouse) assessed as mortality at 650 mg/kg, ip after 5 days; assay type: organism-based; parameters: dose 650 mg/kg, route intraperitoneal; conditions: in vivo
[45] = Toxicity in Mus musculus ddY (mouse) assessed as mortality at 400 mg/kg, ip after 5 days; assay type: organism-based; parameters: dose 400 mg/kg, route intraperitoneal; conditions: in vivo
[46] = Toxicity in Mus musculus ddY (mouse) assessed as mortality at 500 mg/kg, ip after 7 days; assay type: organism-based; parameters: dose 500 mg/kg, route intraperitoneal; conditions: in vivo
[47] = Toxicity in Mus musculus ddY (mouse) assessed as mortality at 600 mg/kg, ip after 7 days; assay type: organism-based; parameters: dose 600 mg/kg, route intraperitoneal; conditions: in vivo
[48] = Toxicity in Mus musculus ddY (mouse) assessed as mortality at 550 mg/kg, ip after 7 days; assay type: organism-based; parameters: dose 550 mg/kg, route intraperitoneal; conditions: in vivo
[49] = Toxicity in Mus musculus ddY (mouse) assessed as mortality at 650 mg/kg, ip after 7 days; assay type: organism-based; parameters: dose 650 mg/kg, route intraperitoneal; conditions: in vivo
[50] = Toxicity in Mus musculus ddY (mouse) assessed as mortality at 400 mg/kg, ip after 7 days; assay type: organism-based; parameters: dose 400 mg/kg, route intraperitoneal; conditions: in vivo
[51] = Toxicity in Mus musculus ddY (mouse) assessed as mortality at 450 mg/kg, ip after 6 days; assay type: organism-based; parameters: dose 450 mg/kg, route intraperitoneal; conditions: in vivo
[52] = Toxicity in Mus musculus ddY (mouse) assessed as mortality at 550 mg/kg, ip after 6 days; assay type: organism-based; parameters: dose 550 mg/kg, route intraperitoneal; conditions: in vivo
[53] = Toxicity in Mus musculus ddY (mouse) assessed as mortality at 500 mg/kg, ip after 6 days; assay type: organism-based; parameters: dose 500 mg/kg, route intraperitoneal; conditions: in vivo
[54] = Toxicity in Mus musculus ddY (mouse) assessed as mortality at 650 mg/kg, ip after 6 days; assay type: organism-based; parameters: dose 650 mg/kg, route intraperitoneal; conditions: in vivo
[55] = Toxicity in Mus musculus ddY (mouse) assessed as mortality at 600 mg/kg, ip after 6 days; assay type: organism-based; parameters: dose 600 mg/kg, route intraperitoneal; conditions: in vivo
[56] = Toxicity in Mus musculus ddY (mouse) assessed as mortality at 400 mg/kg, ip after 6 days; assay type: organism-based; parameters: dose 400 mg/kg, route intraperitoneal; conditions: in vivo
[57] = Toxicity in Mus musculus ddY (mouse) assessed as mortality at 450 mg/kg, ip after 7 days; assay type: organism-based; parameters: dose 450 mg/kg, route intraperitoneal; conditions: in vivo
[58] = Toxicity in Mus musculus ddY (mouse) assessed as mortality at 450 mg/kg, ip after 4 days; assay type: organism-based; parameters: dose 450 mg/kg, route intraperitoneal; conditions: in vivo
[59] = Toxicity in Mus musculus ddY (mouse) assessed as mortality at 550 mg/kg, ip after 4 days; assay type: organism-based; parameters: dose 550 mg/kg, route intraperitoneal; conditions: in vivo

Question: What does the source list for `O=C(O)CN1C(=O)CSC1=S` [RHODANINE-3-ACETIC ACID]?
Answer: Activity [1]: 3.76%; Activity [2]: 5.48%; Activity [3]: 18.01%; Activity [4]: 17.08%; mortality at 96 h [5]: 20%; mortality at 96 h [6]: 100%; mortality at 96 h [7]: 80%; LD50 [8]: 510 mg/kg; Activity [9]: 24.42%; Activity [10]: 25.06%; Activity [11]: 19.57%; Activity [12]: 13.99%; Root length [13]: 57 mm; Root length [14]: 57.1 mm; Activity [15]: 39.8 mm; Activity [16]: 18.3 mm; mortality at 96 h [17]: 0%; mortality at 72 h [18]: 0%; mortality at 72 h [19]: 0%; mortality at 72 h [20]: 40%; mortality at 72 h [21]: 20%; mortality at 72 h [22]: 100%; mortality at 72 h [23]: 60%; mortality at 48 h [24]: 0%; mortality at 48 h [25]: 0%; mortality at 48 h [26]: 20%; mortality at 48 h [27]: 100%; mortality at 48 h [28]: 60%; mortality at 48 h [29]: 0%; mortality at 24 h [30]: 0%; mortality at 24 h [31]: 0%; mortality at 24 h [32]: 0%; mortality at 24 h [33]: 20%; mortality at 24 h [34]: 20%; Activity [35]: 7.05%; mortality at 24 h [36]: 0%; Activity [37]: 7.35%; Activity [38]: 14.1%; Activity [39]: 10.17%; mortality at 120 h [40]: 20%; mortality at 120 h [41]: 80%; mortality at 120 h [42]: 20%; mortality at 120 h [43]: 80%; mortality at 120 h [44]: 100%; mortality at 120 h [45]: 0%; mortality at 168 h [46]: 40%; mortality at 168 h [47]: 80%; mortality at 168 h [48]: 80%; mortality at 168 h [49]: 100%; mortality at 168 h [50]: 0%; mortality at 144 h [51]: 20%; mortality at 144 h [52]: 80%; mortality at 144 h [53]: 40%; mortality at 144 h [54]: 100%; mortality at 144 h [55]: 80%; mortality at 144 h [56]: 0%; mortality at 168 h [57]: 20%; mortality at 96 h [58]: 20%; mortality at 96 h [59]: 80%
